# From PubChem BioAssay AID330 (DTP/NCI, 2004)
# Inconclusive results and toxic doses are left out.
# System: P388 leukemia ip, CD2F1 mice, survival T/C
# Test: NCI In Vivo Anticancer Drug Screen. Data for tumor model P388 Leukemia (intraperitoneal) in CD2F1 (CDF1) mice
# Details: endpoint: median survival time, higher = longer survival
# Method in brief: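 Mice carrying the transplanted tumor received test compound or vehicle. Survival was recorded in each group, and the value is the treated-group measurement divided by that of the vehicle-treated control group.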
# [1] = dose: 100.0 mg/kg/injection, schedule: Q04DX003 (ip), vehicle: saline with Tween-80
# [2] = dose: 200.0 mg/kg/injection, schedule: Q04DX003 (ip), vehicle: saline with Tween-80
compound,measurement,setting,value
COc1cc([N+](=O)[O-])ccc1C,T/C,"dose: 100.0 mg/kg/injection, schedule: Q04DX003 (ip), vehicle: other",104 % of control
same,T/C,"dose: 200.0 mg/kg/injection, schedule: Q04DX003 (ip), vehicle: other",100 % of control
same,T/C,"dose: 400.0 mg/kg/injection, schedule: Q04DX003 (ip), vehicle: other",100 % of control
NC(=O)c1n[nH][nH]c1=O,T/C,"dose: 50.0 mg/kg/injection, schedule: Q01DX005 (ip), vehicle: saline",115 % of control
same,T/C,"dose: 100.0 mg/kg/injection, schedule: Q01DX005 (ip), vehicle: saline",105 % of control
same,T/C,"dose: 200.0 mg/kg/injection, schedule: Q01DX005 (ip), vehicle: saline",115 % of control
CCC1=Cc2cc([N+](=O)[O-])cc(OC)c2OC12SCCN2C (centres undefined),T/C,[1],100 % of control
same,T/C,[2],103 % of control
same,T/C,"dose: 400.0 mg/kg/injection, schedule: Q04DX003 (ip), vehicle: saline with Tween-80",103 % of control
O=C(O)c1cccc([N+](=O)[O-])c1C(=O)O,T/C,"dose: 25.0 mg/kg/injection, schedule: Q04DX003 (ip), vehicle: saline with Tween-80",103 % of control
same,T/C,"dose: 50.0 mg/kg/injection, schedule: Q04DX003 (ip), vehicle: saline with Tween-80",108 % of control
same,T/C,[1],103 % of control
same,T/C,[2],94 % of control
NCCNC(c1ccccc1)C(O)c1ccccc1 (centres undefined),T/C,"dose: 50.0 mg/kg/injection, schedule: Q04DX002 (ip), vehicle: Klucel (hydroxypropylcellulose) (HPC)",102 % of control
same,T/C,"dose: 100.0 mg/kg/injection, schedule: Q04DX002 (ip), vehicle: Klucel (hydroxypropylcellulose) (HPC)",100 % of control
COc1ccc(C(CNC(=O)Cc2ccc(Oc3cc(CC(=O)NCC(OC)c4ccc(OC)c(OC)c4)ccc3OC)cc2)OC)cc1OC (centres undefined),T/C,"dose: 60.0 mg/kg/injection, schedule: Q01DX005 (ip), vehicle: saline with Tween-80",94 % of control
same,T/C,"dose: 120.0 mg/kg/injection, schedule: Q01DX005 (ip), vehicle: saline with Tween-80",86 % of control
same,T/C,"dose: 240.0 mg/kg/injection, schedule: Q01DX005 (ip), vehicle: saline with Tween-80",92 % of control
Cc1cc(=O)c2c(C)nn(-c3ccccc3)c2[nH]1,T/C,"dose: 15.0 mg/kg/injection, schedule: Q01DX005 (ip), vehicle: Klucel (hydroxypropylcellulose) (HPC)",98 % of control
same,T/C,"dose: 30.0 mg/kg/injection, schedule: Q01DX005 (ip), vehicle: Klucel (hydroxypropylcellulose) (HPC)",100 % of control
same,T/C,"dose: 60.0 mg/kg/injection, schedule: Q01DX005 (ip), vehicle: Klucel (hydroxypropylcellulose) (HPC)",94 % of control
same,T/C,"dose: 240.0 mg/kg/injection, schedule: Q01DX005 (ip), vehicle: Klucel (hydroxypropylcellulose) (HPC)",93 % of control
C=CCP1(C)=NP(OCC(F)(F)F)(OCC(F)(F)F)=NP(OCC(F)(F)F)(OCC(F)(F)F)=N1 (centres undefined),T/C,"dose: 50.0 mg/kg/injection, schedule: Q01DX005 (ip), vehicle: Klucel (hydroxypropylcellulose) (HPC)",99 % of control
same,T/C,"dose: 100.0 mg/kg/injection, schedule: Q01DX005 (ip), vehicle: Klucel (hydroxypropylcellulose) (HPC)",101 % of control
same,T/C,"dose: 200.0 mg/kg/injection, schedule: Q01DX005 (ip), vehicle: Klucel (hydroxypropylcellulose) (HPC)",92 % of control
CN(C)CSc1nc2ccccc2s1,T/C,"dose: 50.0 mg/kg/injection, schedule: Q01DX009 (ip), vehicle: Klucel (hydroxypropylcellulose) (HPC)",96 % of control
same,T/C,"dose: 100.0 mg/kg/injection, schedule: Q01DX009 (ip), vehicle: Klucel (hydroxypropylcellulose) (HPC)",94 % of control
same,T/C,"dose: 200.0 mg/kg/injection, schedule: Q01DX009 (ip), vehicle: Klucel (hydroxypropylcellulose) (HPC)",94 % of control
same,T/C,"dose: 400.0 mg/kg/injection, schedule: Q01DX009 (ip), vehicle: Klucel (hydroxypropylcellulose) (HPC)",95 % of control
CC(C)(C)N1CC(O)C1,T/C,"dose: 50.0 mg/kg/injection, schedule: Q01DX001 (ip), vehicle: saline",100 % of control
same,T/C,"dose: 100.0 mg/kg/injection, schedule: Q01DX001 (ip), vehicle: saline",98 % of control
same,T/C,"dose: 200.0 mg/kg/injection, schedule: Q01DX001 (ip), vehicle: saline",93 % of control
O=C1CC2(C(=O)NN1)C1=C(c3ccccc3CC1)N1CCCC12 (centres undefined),T/C,"dose: 11.25 mg/kg/injection, schedule: Q01DX009 (ip), vehicle: Klucel (hydroxypropylcellulose) (HPC)",100 % of control
same,T/C,"dose: 22.5 mg/kg/injection, schedule: Q01DX009 (ip), vehicle: Klucel (hydroxypropylcellulose) (HPC)",102 % of control
same,T/C,"dose: 45.0 mg/kg/injection, schedule: Q01DX009 (ip), vehicle: Klucel (hydroxypropylcellulose) (HPC)",100 % of control
same,T/C,"dose: 90.0 mg/kg/injection, schedule: Q01DX009 (ip), vehicle: Klucel (hydroxypropylcellulose) (HPC)",100 % of control
COc1ccc(CC2C(=O)OC(C)C(NC(=O)C(CC(C)C)N(C)C(=O)C3CCCN3C(=O)C(C)O)C(=O)NC(C(C)C)C(O)CC(=O)OC(C(C)C)C(=O)C(C)C(=O)NC(CC(C)C)C(=O)N3CCCC3C(=O)N2C)cc1 (centres undefined),T/C,"dose: 37.5 micrograms/kg/injection, schedule: Q01DX005 (ip), vehicle: distilled water + alcohol",122 % of control
same,T/C,"dose: 250.0 micrograms/kg/injection, schedule: Q01DX005 (ip), vehicle: distilled water + alcohol",160 % of control
same,T/C,"dose: 500.0 micrograms/kg/injection, schedule: Q01DX005 (ip), vehicle: distilled water + alcohol",166 % of control
